Reference: patent publication US20120302577A1 (AB SCIENCE, priority 2010, published 2012)
Structures can show the parent of a compound that is named as a salt.

Columns and labels:
patients with GIST = details: initial dose 400 mg/day, 345 patients; cited from earlier work
[1] = test system: patients with advanced GIST; details: cited from earlier work
[2] = test system: patients with advanced GIST; test: Phase 2 clinical trial, safety assessment (adverse events, NCI CTCAE v3.0); format: in vivo, human; details: for Abdominal Pain / Abdominal Pain Upper / Anaemia / Asthenia / Diarrhoea / Dry Skin / Erythema / Eye Oedema / Eyelid Oedema / Lacrimation Increased / Mucosal Inflammation / Muscle Spasms / Myalgia / Nausea / Neutropenia / Oedema Peripheral / Pruritus / Rash / Vomiting: N = 30
From the text: Methods; Patients: Patients enrolled in this study were aged over 18 years with inoperable, non-pretreated, histologically proven locally advanced or metastatic, c-Kit positive GIST. […] Exclusion criteria included: inadequate organ function defined via blood tests, severe liver or cardiac failure, and severe neurological or psychiatric disorders. Patients receiving a concomitant treatment within 4 weeks before inclusion, and pregnant or lactating women were also excluded. […] All adverse events (AEs), including abnormal serology or haematology, were recorded regardless of causality.

[3] = test system: patients with advanced GIST; test: Phase 2 clinical trial, response rate according to RECIST (CT); format: in vivo, human; details: 2 months (N = 30)
From the text: Methods; Patients: Patients enrolled in this study were aged over 18 years with inoperable, non-pretreated, histologically proven locally advanced or metastatic, c-Kit positive GIST. […] Exclusion criteria included: inadequate organ function defined via blood tests, severe liver or cardiac failure, and severe neurological or psychiatric disorders. Patients receiving a concomitant treatment within 4 weeks before inclusion, and pregnant or lactating women were also excluded. […] Methods; Statistical analyses: Simon […] two-stage design was used for this prospective, multicenter, single-group, phase II trial. Fourteen patients were initially enrolled, with recruitment of an additional ten patients being dependent on the occurrence of at least one objective RECIST response. This population was further extended to a total of 30 patients to ensure a sufficient evaluable population for all end-points; the type I(α) error was 5% (two-sided) for all analyses. Quantitative variables were described by the number of filled and missing data, mean, standard deviation, median, minimum and maximum. Qualitative variables were described by the number of missing data and, for each modality, frequency and percentage (referring to filled data). Time-to-event data were described using Kaplan-Meier (KM) estimates. The median was provided with its 95% confidence interval (95% CI). […]

[4] = test system: imatinib-resistant HMC-1α155 cells; test: Apoptosis assay by Propidium Iodide staining on imatinib-resistant cells; format: cell-based, human; details: imatinib-resistant HMC-1α155 cells exposed to 1 μM
Method: HMC-1 is a human mast cell line derived from a patient with mast cell leukaemia. The cell line used in this study, HMC-1α155, is a clone derived from the original population expressing endogenous Kit bearing the mutation Val 560 to Gly. […] The medium used in this case was a RPMI medium containing L-glutamine (Cambrex cat#12-702F) supplemented with 100 U/mL penicillin and 100 μg/mL streptomycin (Cambrex 100× penicilline/streptomycine mixture cat #17-602E), and with 10% v/v foetal calf serum (AbCys Lot S02823S1800) which has been previously heat-inactivated 30 minutes at 56° C. (RPMI 10). The medium containing the drugs was replaced with fresh one every 3-4 days. […] The principle behind the method for apoptosis assay by Propidium Iodide Staining (PI staining) is as follows: during apoptosis, DNA breakup causes small fragments of DNA to be free in the nucleus. Following appropriate elution with citrate buffer, these fragments are lost from the nucleus. As these cells now have a lower DNA content, subsequent staining with a DNA binding dye will reveal these cells in the sub-G1 region.

[5] = test system: patients with advanced GIST; test: Phase 2 clinical trial, metabolic response (FDG-PET); format: in vivo, human; details: At 1 month (N = 13)
From the text: Methods; Patients: Patients enrolled in this study were aged over 18 years with inoperable, non-pretreated, histologically proven locally advanced or metastatic, c-Kit positive GIST. […] Exclusion criteria included: inadequate organ function defined via blood tests, severe liver or cardiac failure, and severe neurological or psychiatric disorders. Patients receiving a concomitant treatment within 4 weeks before inclusion, and pregnant or lactating women were also excluded.

[6] = test system: patients with advanced GIST; details: after 2 months of masitinib; cited from earlier work
[7] = test system: patients with advanced GIST; test: Phase 2 clinical trial, time-to-event analysis (PFS, OS); format: in vivo, human
From the text: Methods; Patients: Patients enrolled in this study were aged over 18 years with inoperable, non-pretreated, histologically proven locally advanced or metastatic, c-Kit positive GIST. […] Exclusion criteria included: inadequate organ function defined via blood tests, severe liver or cardiac failure, and severe neurological or psychiatric disorders. Patients receiving a concomitant treatment within 4 weeks before inclusion, and pregnant or lactating women were also excluded. […] Time-to-event analyses were calculated from the date of first masitinib intake to the date of event (documented progression or death). Patients who had not progressed at the date of last tumor assessment were censored at that date for PFS. Patients alive at the time of the analysis were censored at the date of last contact for OS. Methods; Statistical analyses: Simon […] two-stage design was used for this prospective, multicenter, single-group, phase II trial. Fourteen patients were initially enrolled, with recruitment of an additional ten patients being dependent on the occurrence of at least one objective RECIST response. This population was further extended to a total of 30 patients to ensure a sufficient evaluable population for all end-points; the type I(α) error was 5% (two-sided) for all analyses. Quantitative variables were described by the number of filled and missing data, mean, standard deviation, median, minimum and maximum. Qualitative variables were described by the number of missing data and, for each modality, frequency and percentage (referring to filled data). Time-to-event data were described using Kaplan-Meier (KM) estimates. The median was provided with its 95% confidence interval (95% CI). PFS rates were given every 6 months with KM estimates. All data analyses and reporting procedures used SAS v9.1 in a Windows XP operating system environment.

Cc1ccc(NC(=O)c2ccc(CN3CCN(C)CC3)cc2)cc1Nc1nccc(-c2cccnc2)n1 [imatinib]
2-year PFS rate (patients with GIST): 46%
2-year survival (patients with GIST): 72%
3-year survival (patients with GIST): ~61%
Median PFS (patients with GIST): 18 months
Median overall survival (OS) (patients with GIST): 55 months
2-year survival rate of patients with advanced GIST ([1]; after introduction of imatinib (pre-imatinib 25%)): about 70%
Patients with early resistance (progression within first 6 months, no response) ([1]; in vivo): 10-15%

Cc1ccc(NC(=O)c2ccc(CN3CCN(C)CC3)cc2)cc1Nc1nc(-c2cccnc2)cs1 [masitinib, 4-(4-methylpiperazin-1-ylmethyl)-N-[4-methyl-3-(4-pyridin-3-ylthiazol-2-ylamino)phenyl]benzamide-mesylate methane sulfonic acid salt]
Abdominal Pain ([2]; All causalities, All grades): 16 (53.3%) Number (%) of patients
Abdominal Pain Upper ([2]; All causalities, All grades): 9 (30.0%) Number (%) of patients
Anaemia ([2]; All causalities, All grades): 6 (20.0%) Number (%) of patients
Asthenia ([2]; All causalities, All grades): 27 (90.0%) Number (%) of patients
Diarrhoea ([2]; All causalities, All grades): 18 (60.0%) Number (%) of patients
Dry Skin ([2]; All causalities, All grades): 4 (13.3%) Number (%) of patients
Erythema ([2]; All causalities, All grades): 6 (20.0%) Number (%) of patients
Eye Oedema ([2]; All causalities, All grades): 14 (46.7%) Number (%) of patients
Eyelid Oedema ([2]; All causalities, All grades): 7 (23.3%) Number (%) of patients
Lacrimation Increased ([2]; All causalities, All grades): 4 (13.3%) Number (%) of patients
Mucosal Inflammation ([2]; All causalities, All grades): 5 (16.7%) Number (%) of patients
Muscle Spasms ([2]; All causalities, All grades): 12 (40.0%) Number (%) of patients
Myalgia ([2]; All causalities, All grades): 4 (13.3%) Number (%) of patients
Nausea ([2]; All causalities, All grades): 15 (50.0%) Number (%) of patients
Neutropenia ([2]; All causalities, All grades): 5 (16.7%) Number (%) of patients
Oedema Peripheral ([2]; All causalities, All grades): 8 (26.7%) Number (%) of patients
Pruritus ([2]; All causalities, All grades): 11 (36.7%) Number (%) of patients
Rash ([2]; All causalities, All grades): 12 (40.0%) Number (%) of patients
Vomiting ([2]; All causalities, All grades): 10 (33.3%) Number (%) of patients
Abdominal Pain ([2]; All causalities, G3 + G4): 2 (6.7%) Number (%) of patients
Anaemia ([2]; All causalities, G3 + G4): 1 (3.3%) Number (%) of patients
Asthenia ([2]; All causalities, G3 + G4): 1 (3.3%) Number (%) of patients
Diarrhoea ([2]; All causalities, G3 + G4): 1 (3.3%) Number (%) of patients
Eye Oedema ([2]; All causalities, G3 + G4): 1 (3.3%) Number (%) of patients
Mucosal Inflammation ([2]; All causalities, G3 + G4): 1 (3.3%) Number (%) of patients
Neutropenia ([2]; All causalities, G3 + G4): 2 (6.7%) Number (%) of patients
Pruritus ([2]; All causalities, G3 + G4): 1 (3.3%) Number (%) of patients
Rash ([2]; All causalities, G3 + G4): 3 (10.0%) Number (%) of patients
Patients reporting at least one treatment-related AE ([2]; ITT N = 30): All patients
Treatment-related toxicity per patient: abdominal pain ([2]; ITT N = 30): 33%
Treatment-related toxicity per patient: asthenia ([2]; ITT N = 30): 83%
Treatment-related toxicity per patient: cutaneous rash ([2]; ITT N = 30): 40%
Treatment-related toxicity per patient: diarrhoea ([2]; ITT N = 30): 57%
Treatment-related toxicity per patient: eye oedema ([2]; ITT N = 30): 47%
Treatment-related toxicity per patient: muscle spasms ([2]; ITT N = 30): 40%
Treatment-related toxicity per patient: nausea ([2]; ITT N = 30): 47%
Treatment-related toxicity per patient: peripheral oedema ([2]; ITT N = 30): 20%
Treatment-related toxicity per patient: pruritus ([2]; ITT N = 30): 33%
Treatment-related toxicity per patient: upper abdominal pain ([2]; ITT N = 30): 23%
Treatment-related toxicity per patient: vomiting ([2]; ITT N = 30): 23%
Abdominal Pain ([2]; Suspected, All grades): 10 (33.3%) Number (%) of patients
Abdominal Pain Upper ([2]; Suspected, All grades): 7 (23.3%) Number (%) of patients
Anaemia ([2]; Suspected, All grades): 4 (13.3%) Number (%) of patients
Asthenia ([2]; Suspected, All grades): 25 (83.3%) Number (%) of patients
Diarrhoea ([2]; Suspected, All grades): 17 (56.7%) Number (%) of patients
Dry Skin ([2]; Suspected, All grades): 4 (13.3%) Number (%) of patients
Erythema ([2]; Suspected, All grades): 5 (16.7%) Number (%) of patients
Eye Oedema ([2]; Suspected, All grades): 14 (46.7%) Number (%) of patients
Eyelid Oedema ([2]; Suspected, All grades): 7 (23.3%) Number (%) of patients
Lacrimation Increased ([2]; Suspected, All grades): 4 (13.3%) Number (%) of patients
Mucosal Inflammation ([2]; Suspected, All grades): 5 (16.7%) Number (%) of patients
Muscle Spasms ([2]; Suspected, All grades): 12 (40.0%) Number (%) of patients
Myalgia ([2]; Suspected, All grades): 4 (13.3%) Number (%) of patients
Nausea ([2]; Suspected, All grades): 14 (46.7%) Number (%) of patients
Neutropenia ([2]; Suspected, All grades): 5 (16.7%) Number (%) of patients
Oedema Peripheral ([2]; Suspected, All grades): 6 (20.0%) Number (%) of patients
Pruritus ([2]; Suspected, All grades): 10 (33.3%) Number (%) of patients
Rash ([2]; Suspected, All grades): 12 (40.0%) Number (%) of patients
Vomiting ([2]; Suspected, All grades): 7 (23.3%) Number (%) of patients
Abdominal Pain ([2]; Suspected, G3 + G4): 1 (3.3%) Number (%) of patients
Anaemia ([2]; Suspected, G3 + G4): 1 (3.3%) Number (%) of patients
Asthenia ([2]; Suspected, G3 + G4): 1 (3.3%) Number (%) of patients
Diarrhoea ([2]; Suspected, G3 + G4): 1 (3.3%) Number (%) of patients
Eye Oedema ([2]; Suspected, G3 + G4): 1 (3.3%) Number (%) of patients
Mucosal Inflammation ([2]; Suspected, G3 + G4): 1 (3.3%) Number (%) of patients
Neutropenia ([2]; Suspected, G3 + G4): 2 (6.7%) Number (%) of patients
Pruritus ([2]; Suspected, G3 + G4): 1 (3.3%) Number (%) of patients
Rash ([2]; Suspected, G3 + G4): 3 (10.0%) Number (%) of patients
Cardiac side-effects ([2]; to date): no cardiac side-effects have been observed
Response (RECIST) CR + PR + SD (disease control rate), % [3]: (96.7%) [82.8; 99.9]
Response (RECIST) CR, % ([3]; 7.5 mg/kg/day oral): (0.0%)
% apoptosis (cells in apoptosis with respect to overall cells) [4]: More than 45%
Metabolic response CMR + PMR (metabolic response rate), % [5]: (69.2%)
Metabolic response CMR, % [5]: (0.0%)
Patients with tumour response assessed with DCE-US [6]: 75%
OS rates (%) [95% CI] ([7]; 12 months): 96.7%
PFS rate (%) [95% CI] ([7]; 24 months): 60%
PFS rate (%) [95% CI] ([7]; 36 months): 55%
